Measured values as given in PubChem BioAssay AID2060509 (Molecular Pharmacology Branch, DTP, NCI, 2025).

System: 485176-168-R4-J1-PDC spheroids with HUVEC/MSC, viability
Test: Anticancer human tumor 485176-168-R4-J1-PDC patient-derived pancreatic adenocarcinoma cell line growth inhibition [GQUAD]
Conditions: for IC50: curve of first compound; for viability, T/C: stronger effect = lower value
Procedure, shortened: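 Viability of tumor cells grown as complex spheroids with endothelial and stromal cells, exposed to drug combinations. Top concentration at or near clinical Cmax (else 10 microM), diluted in half-log increments.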

[1] = second compound 0.0316 µM, first compound 0.0316 µM
[2] = second compound 0.0316 µM, first compound 0.1 µM
[3] = second compound 0.0316 µM, first compound 0.316 µM
[4] = second compound 0.0316 µM, first compound 1 µM
[5] = second compound 0.0316 µM, first compound 3.16 µM
[6] = second compound 0.0316 µM, first compound 10 µM
[7] = second compound 0.1 µM, first compound 0.0316 µM
[8] = second compound 0.1 µM, first compound 0.1 µM
[9] = second compound 0.1 µM, first compound 0.316 µM
[10] = second compound 0.1 µM, first compound 1 µM
[11] = second compound 0.1 µM, first compound 3.16 µM
[12] = second compound 0.1 µM, first compound 10 µM
[13] = second compound 0.316 µM, first compound 0.0316 µM
[14] = second compound 0.316 µM, first compound 0.1 µM
[15] = second compound 0.316 µM, first compound 0.316 µM
[16] = second compound 0.316 µM, first compound 1 µM
[17] = second compound 0.316 µM, first compound 3.16 µM
[18] = second compound 0.316 µM, first compound 10 µM
[19] = second compound 1 µM, first compound 0.0316 µM
[20] = second compound 1 µM, first compound 0.1 µM
[21] = second compound 1 µM, first compound 0.316 µM
[22] = second compound 1 µM, first compound 1 µM
[23] = second compound 1 µM, first compound 3.16 µM
[24] = second compound 1 µM, first compound 10 µM
[25] = second compound 3.16 µM, first compound 0.0316 µM
[26] = second compound 3.16 µM, first compound 0.1 µM
[27] = second compound 3.16 µM, first compound 0.316 µM
[28] = second compound 3.16 µM, first compound 1 µM
[29] = second compound 3.16 µM, first compound 3.16 µM
[30] = second compound 3.16 µM, first compound 10 µM
[31] = second compound 10 µM, first compound 0.0316 µM
[32] = second compound 10 µM, first compound 0.1 µM
[33] = second compound 10 µM, first compound 0.316 µM
[34] = second compound 10 µM, first compound 1 µM
[35] = second compound 10 µM, first compound 3.16 µM
[36] = second compound 10 µM, first compound 10 µM
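Note: spheroids exposed to compounds for seven days before readout.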
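Throughout, for viability, T/C: percent viability relative to DMSO vehicle control wells as 100%.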

`O=C(c1cc(Cc2n[nH]c(=O)c3ccccc23)ccc1F)N1CCN(C(=O)C2CC2)CC1` + Cc1cnc(CNC(=O)c2c(=O)c3ccc(N4CCCN(C)CC4)nc3n3c2sc2ccccc23)cn1 showed an IC50 (second compound 0.0316 µM) of over 10000 nM, an IC50 (second compound 0.1 µM) of over 10000 nM and an IC50 (second compound 0.316 µM) of over 10000 nM. The IC50 (second compound 1 µM) was under 31.6 nM, the IC50 (second compound 3.16 µM) was under 31.6 nM and the IC50 (second compound 10 µM) was under 31.6 nM. For the same compound, the viability, T/C [1] was 92.7%, the viability, T/C [2] was 74.2% and the viability, T/C [3] was 85.1%. For the same compound, the viability, T/C [4] was 71%, the viability, T/C [5] was 68.4% and the viability, T/C [6] was 75.7%. For the same compound, the viability, T/C [7] was 63.5%, the viability, T/C [8] was 75.8% and the viability, T/C [9] was 63.4%. The viability, T/C [10] was 64.4%, the viability, T/C [11] was 75.8% and the viability, T/C [12] was 59.2%. The viability, T/C [13] was 57.2%, the viability, T/C [14] was 52.8% and the viability, T/C [15] was 60.7%. It also gave a viability, T/C [16] of 59.2%, a viability, T/C [17] of 54.2% and a viability, T/C [18] of 45.6%. For the same compound, the viability, T/C [19] was 44.8%, the viability, T/C [20] was 43.7% and the viability, T/C [21] was 52.6%. It also gave a viability, T/C [22] of 42.6%, a viability, T/C [23] of 48.4% and a viability, T/C [24] of 42.6%. For the same compound, the viability, T/C [25] was 47.4%, the viability, T/C [26] was 43.7% and the viability, T/C [27] was 38.4%. It also gave a viability, T/C [28] of 38.6%, a viability, T/C [29] of 41.6% and a viability, T/C [30] of 35.8%. It also gave a viability, T/C [31] of 43.5%, a viability, T/C [32] of 39.7% and a viability, T/C [33] of 42.1%. The viability, T/C [34] was 38.4%, the viability, T/C [35] was 35.6% and the viability, T/C [36] was 35.4%.
With `C=CC(=O)N1CCN(c2nc(=O)n(-c3c(C)ccnc3C(C)C)c3nc(-c4c(O)cccc4F)c(F)cc23)C(C)C1` (stereo not drawn) + Cc1[nH]c2ccc(F)cc2c1-c1nc2c3cccnc3c3ncccc3c2[nH]1 the IC50 (second compound 0.0316 µM) was over 10000 nM, the IC50 (second compound 0.1 µM) was over 10000 nM and the IC50 (second compound 0.316 µM) was over 10000 nM. It also gave an IC50 (second compound 1 µM) of over 10000 nM, an IC50 (second compound 3.16 µM) of over 10000 nM and an IC50 (second compound 10 µM) of over 10000 nM. For the same compound, the viability, T/C [1] was 114%, the viability, T/C [2] was 100% and the viability, T/C [3] was 103%. It also gave a viability, T/C [4] of 89.4%, a viability, T/C [5] of 122% and a viability, T/C [6] of 102%. It also gave a viability, T/C [7] of 80.1%, a viability, T/C [8] of 109% and a viability, T/C [9] of 116%. The viability, T/C [10] was 112%, the viability, T/C [11] was 117% and the viability, T/C [12] was 102%. The viability, T/C [13] was 87.3%, the viability, T/C [14] was 86.4% and the viability, T/C [15] was 92%. The viability, T/C [16] was 101%, the viability, T/C [17] was 111% and the viability, T/C [18] was 96.7%. It also gave a viability, T/C [19] of 96.7%, a viability, T/C [20] of 86.5% and a viability, T/C [21] of 104%. The viability, T/C [22] was 103%, the viability, T/C [23] was 113% and the viability, T/C [24] was 104%. It also gave a viability, T/C [25] of 91.7%, a viability, T/C [26] of 95.5% and a viability, T/C [27] of 108%. For the same compound, the viability, T/C [28] was 83.6%, the viability, T/C [29] was 92.1% and the viability, T/C [30] was 90.8%. The viability, T/C [31] was 87.3%, the viability, T/C [32] was 105% and the viability, T/C [33] was 78.1%. The viability, T/C [34] was 80.8%, the viability, T/C [35] was 87.7% and the viability, T/C [36] was 76.5%.
Work on `CC1COCCN1c1cc(C2(S(C)(=N)=O)CC2)nc(-c2ccnc3[nH]ccc23)n1` (stereo not drawn) + Cc1cnc(CNC(=O)c2c(=O)c3ccc(N4CCCN(C)CC4)nc3n3c2sc2ccccc23)cn1 yielded an IC50 (second compound 0.0316 µM) of 2310 nM, an IC50 (second compound 0.1 µM) of 1010 nM and an IC50 (second compound 0.316 µM) of 196 nM. The IC50 (second compound 1 µM) was 53.5 nM, the IC50 (second compound 3.16 µM) was under 31.6 nM and the IC50 (second compound 10 µM) was under 31.6 nM. For the same compound, the viability, T/C [1] was 96.4%, the viability, T/C [2] was 82.9% and the viability, T/C [3] was 89.2%. For the same compound, the viability, T/C [4] was 44.8%, the viability, T/C [5] was 59% and the viability, T/C [6] was 15.1%. It also gave a viability, T/C [7] of 73.8%, a viability, T/C [8] of 82.6% and a viability, T/C [9] of 53.6%. The viability, T/C [10] was 39.7%, the viability, T/C [11] was 51% and the viability, T/C [12] was 12.1%. It also gave a viability, T/C [13] of 54%, a viability, T/C [14] of 62.7% and a viability, T/C [15] of 47.2%. It also gave a viability, T/C [16] of 28.2%, a viability, T/C [17] of 36.4% and a viability, T/C [18] of 11.9%. The viability, T/C [19] was 50.3%, the viability, T/C [20] was 51.5% and the viability, T/C [21] was 41.6%. The viability, T/C [22] was 28.9%, the viability, T/C [23] was 36.8% and the viability, T/C [24] was 11.9%. It also gave a viability, T/C [25] of 45.8%, a viability, T/C [26] of 41.6% and a viability, T/C [27] of 38.5%. It also gave a viability, T/C [28] of 23.9%, a viability, T/C [29] of 28.7% and a viability, T/C [30] of 11%. For the same compound, the viability, T/C [31] was 41.4%, the viability, T/C [32] was 36.7% and the viability, T/C [33] was 37.1%. It also gave a viability, T/C [34] of 27.5%, a viability, T/C [35] of 28.1% and a viability, T/C [36] of 12.8%.
`Nc1ccn(C2OC(CO)C(O)C2(F)F)c(=O)n1` (stereo not drawn) + CN(C)c1ccc(Nc2c3ccc(NC(=O)CCN4CCCC4)cc3nc3cc(NC(=O)CCN4CCCC4)ccc23)cc1 showed an IC50 (second compound 0.0316 µM) of 49.1 nM, an IC50 (second compound 0.1 µM) of 45.9 nM and an IC50 (second compound 0.316 µM) of 43.6 nM. It also gave an IC50 (second compound 1 µM) of 61.2 nM, an IC50 (second compound 3.16 µM) of 55.9 nM and an IC50 (second compound 10 µM) of 41.3 nM. For the same compound, the viability, T/C [1] was 70.3%, the viability, T/C [2] was 17.4% and the viability, T/C [3] was 10.6%. It also gave a viability, T/C [4] of 9.81%, a viability, T/C [5] of 10.5% and a viability, T/C [6] of 12.1%. It also gave a viability, T/C [7] of 63.7%, a viability, T/C [8] of 22% and a viability, T/C [9] of 10.5%. It also gave a viability, T/C [10] of 10.5%, a viability, T/C [11] of 10.3% and a viability, T/C [12] of 10.9%. It also gave a viability, T/C [13] of 62.1%, a viability, T/C [14] of 19.4% and a viability, T/C [15] of 10.4%. The viability, T/C [16] was 10.9%, the viability, T/C [17] was 10.5% and the viability, T/C [18] was 13.7%. The viability, T/C [19] was 90.1%, the viability, T/C [20] was 20.1% and the viability, T/C [21] was 10.6%. For the same compound, the viability, T/C [22] was 12.5%, the viability, T/C [23] was 11.6% and the viability, T/C [24] was 9.65%. It also gave a viability, T/C [25] of 81.3%, a viability, T/C [26] of 18.1% and a viability, T/C [27] of 10.6%. It also gave a viability, T/C [28] of 11.5%, a viability, T/C [29] of 10% and a viability, T/C [30] of 11.9%. The viability, T/C [31] was 58%, the viability, T/C [32] was 23.7% and the viability, T/C [33] was 10.4%. The viability, T/C [34] was 10.9%, the viability, T/C [35] was 11.1% and the viability, T/C [36] was 11.2%.
